Assay [1] addresses T1, ALPK1 (Homo sapiens, UniProt Q96QP1). The assay is described as follows: Cell-free kinase assay of ALPK1-dependent phosphorylation of IκB. As to conditions: 2 nM ALPK1, with or without ATP, 1 hour. The assay is classed as biochemical. As to the method: We next tested whether H1b-ADP-induced autophosphorylation of ALPK1 was effective to activate NFκB using phosphorylation of IκB as a marker for this activity. Phosphorylation assays were performed according to standard protocols and phosphorylated protein was detected by gel electrophoresis and Western blotting using an antibody that detects phosphorylated IκB. Briefly, assays were performed in a 20 μl volume at 25° C. in assay buffer (25 mM HEPES pH 7.5, 50 mM KCl, 0.1 mM EDTA, 0.1 mM EGTA, 2 mM DTT, 1.5 mM CaCl2, 10 mM MgCl2) containing 2 nM ALPK1 and H1b-ADP […] with or without ATP, or either ALPK1 alone or H1b-ADP alone, both in the presence of ATP. After 1 hour of incubation, the reaction was loaded to denaturing gel for protein electrophoresis and Western was performed to detect phosphorylation of 1 kB using p-IkB antibody (Abcam).

Assay [2] addresses T1, ALPK1. Kind of assay: Thermal shift assay (SYPRO Orange) for binding to ALPK1. As to conditions: ALPK1 7 uM; 1, 5, 25, 125 uM compound; H1b-ADP shift at 5, 25 and 125 uM. The text has this: The thermal shift assay is widely used to determine the binding of a molecule to a protein of interest. The assay is based on the increase in thermal energy required for denaturation of a protein where another molecule is bound to the protein. SYPRO Orange is a fluorescent compound used in the detection of thermal shift. SYPRO Orange binds to hydrophobic surfaces of the protein, and water strongly quenches its fluorescence. When the protein unfolds, the exposed hydrophobic surfaces bind the dye, resulting in an increase in fluorescence. When another molecule is bound to the protein, an increase in the temperature required for unfolding of the protein is observed.
This assay system was used to determine whether or not chemically synthesized HBP, HMP-1bP, and H1b-ADP directly bind to ALPK1. […] Only H1b-ADP induced a shift of more than 1 degree, at each of the three highest concentrations tested, 5 uM, 25 uM, and 125 uM.

From patent publication US11840551B2, “Compositions and methods of modulating the immune response by activating alpha protein kinase 1” (Shanghai Yao Yuan Biotechnology Co., Ltd., priority 2017, dated 2023) come the findings set out here.

T1 sequence (Q96QP1 whole entry): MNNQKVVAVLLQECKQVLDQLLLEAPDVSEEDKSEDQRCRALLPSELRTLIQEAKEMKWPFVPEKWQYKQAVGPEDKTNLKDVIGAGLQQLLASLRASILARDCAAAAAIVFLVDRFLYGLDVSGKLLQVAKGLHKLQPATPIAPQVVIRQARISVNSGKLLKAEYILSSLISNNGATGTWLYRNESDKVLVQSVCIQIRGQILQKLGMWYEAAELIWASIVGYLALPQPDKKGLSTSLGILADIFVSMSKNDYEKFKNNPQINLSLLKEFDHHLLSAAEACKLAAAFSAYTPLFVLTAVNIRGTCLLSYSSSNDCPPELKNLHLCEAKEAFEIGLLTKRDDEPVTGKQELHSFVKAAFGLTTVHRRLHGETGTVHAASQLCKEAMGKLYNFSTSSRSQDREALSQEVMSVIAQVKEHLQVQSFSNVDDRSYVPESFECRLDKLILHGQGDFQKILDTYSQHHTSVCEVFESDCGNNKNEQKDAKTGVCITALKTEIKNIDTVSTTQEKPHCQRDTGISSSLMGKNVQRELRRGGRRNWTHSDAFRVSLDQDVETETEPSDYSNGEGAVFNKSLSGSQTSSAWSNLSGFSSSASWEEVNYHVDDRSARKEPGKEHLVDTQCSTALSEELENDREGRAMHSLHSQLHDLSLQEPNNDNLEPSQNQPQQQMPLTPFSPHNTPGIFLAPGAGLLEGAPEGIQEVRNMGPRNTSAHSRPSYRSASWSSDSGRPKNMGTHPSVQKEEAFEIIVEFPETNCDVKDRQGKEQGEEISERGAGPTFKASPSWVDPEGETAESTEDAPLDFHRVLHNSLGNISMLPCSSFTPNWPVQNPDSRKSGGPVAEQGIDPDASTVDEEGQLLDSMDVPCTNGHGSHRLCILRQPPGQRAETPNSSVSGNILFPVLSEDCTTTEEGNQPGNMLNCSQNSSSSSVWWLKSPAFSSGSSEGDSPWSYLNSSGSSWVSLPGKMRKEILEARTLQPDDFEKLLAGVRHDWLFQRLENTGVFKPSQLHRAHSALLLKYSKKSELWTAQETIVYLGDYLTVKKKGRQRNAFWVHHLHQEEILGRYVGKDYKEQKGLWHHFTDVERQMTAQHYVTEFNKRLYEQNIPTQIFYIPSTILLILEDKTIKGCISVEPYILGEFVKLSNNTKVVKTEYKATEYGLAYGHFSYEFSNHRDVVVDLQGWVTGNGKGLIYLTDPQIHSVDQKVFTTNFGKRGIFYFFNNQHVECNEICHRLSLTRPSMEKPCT

With `Nc1ncnc2c1ncn2[C@@H]1O[C@H](COP(=O)(O)OP(=O)(O)O[C@@H]2O[C@H]([C@H](O)CO)[C@@H](O)[C@H](O)[C@@H]2O)[C@@H](O)[C@H]1O` [Compound H1b-ADP, D-glycero-D-manno-heptose-1β-ADP], the IκB phosphorylation result at ALPK1 [1] was “IkB phosphorylation was detected only in the presence of both ALPK1 and H1b-ADP in the presence of ATP”.
With `O=P(O)(O)O[C@@H]1O[C@H]([C@H](O)CO)[C@@H](O)[C@H](O)[C@@H]1O` [HMP-1bP, D-glycero-β-D-manno-heptose-1-phosphate], the “thermal shift of ALPK1” value on ALPK1 [2] was “Neither HBP nor HMP-1bP were able to induce a thermal shift”.
